Results published in US4839346A, “Antitumor anthracycline glycosides, intermediates thereof, and composition and use thereof” (priority 1986, dated 1989).
Values after ≈ are worked out from the molar mass of the structure shown. Read-outs that look alike come from different tables or passages of the source.

How the values were obtained:
[1] = system: HeLa cells; assay: Cytotoxic activity in vitro, colony inhibition test after 24 hours exposure; format: cell-based; settings: Homo sapiens
Method: (§1) Compound IB has been tested in comparison with daunorubicin (DNR) against HeLa and P388 cells in vitro (Table 1).
(§2) Cytotoxic activity of IB in comparison
^+ COLONY INHIBITION TEST AFTER 24 HOURS EXPOSURE TO THE DRUGS.

[2] = system: P388 cells; assay: Cytotoxic activity in vitro, cell counting after 48 hours exposure; format: cell-based; settings: Mus musculus
Method: as §1, §2
^++ CYTOTOXICITY EVALUATED AFTER 48 HOURS EXPOSURE TO THE DRUGS BY
CELL COUNTING TECHNIQUE.

[3] = In vivo effect against disseminated Gross leukemia in C3H mice; settings: mouse, in vivo; iv, mice with disseminated Gross leukemia; read-out: maxima tolerated dose (MxTD)
Method: (§3) EFFECT AGAINST GROSS LEUKEMIA^(A)
(§4) ^(A) EXPERIMENTS WERE PERFORMED IN C3H MICE, INOCULATED WITH 2 .times
(§5) 10^6 LEUKEMIA CELLS I.V.
(§6) ^(B) TREATMENT I.V. ON DAY 1 AFTER TUMOR INOCULUM.
(§7) ^(C) MEDIAN SURVIVAL TIME OF TREATED MICE/MEDIAN SURVIVAL TIME OF
(§8) ^(D) EVALUATED ON THE BASIS OF AUTOPSY FINDINGS.

[4] = system: disseminated Gross leukemia; assay: as above; settings: for TOXIC DEATHS: evaluated on the basis of autopsy findings; for T/C %: median survival time treated/controls × 100
Method: as §3, §4, §5, §6, §7, §8

Compound: COc1cccc2c1C(=O)c1c(O)c3c(c(O)c1C2=O)C[C@@](O)(C(C)=O)C[C@@H]3O[C@H]1C[C@H](N)[C@H](O)[C@H](C)O1 [DNR, daunorubicin, reference compound]
- IC50 ([1]; 24 h, read-out: ID50): 10.5 ng/mL (≈ 0.0199 µM)
- IC50 ([2]; P388, 48 h, read-out: ID50): 8.4 ng/mL (≈ 0.0159 µM)
- MTD [3]: 15 mg/kg
- TOXIC DEATHS ([4]; 10 mg/kg i.v. on day 1): 0/10
- T/C % ([4]; 10 mg/kg i.v. on day 1 after tumor inoculum): 150%
- TOXIC DEATHS ([4]; 15 mg/kg i.v. on day 1): 0/10
- T/C % ([4]; 15 mg/kg i.v. on day 1 after tumor inoculum): 183%
- TOXIC DEATHS ([4]; 22.5 mg/kg i.v. on day 1): 2/10
- T/C % ([4]; 22.5 mg/kg i.v. on day 1 after tumor inoculum): 217%

Compound: COc1cccc2c1C(=O)c1c(O)c3c(c(O)c1C2=O)C[C@@](O)(C(=O)CO)C[C@@H]3O[C@H]1C[C@@H](CN)[C@@H](O)[C@H](C)O1 [IB, 3'-desamino-3'-aminomethyl-3',4'-epi-doxorubicin]
- IC50 ([1]; colony inhibition test after 24 hours exposure, read-out: ID50 (the source's name)): 6.4 ng/mL (≈ 0.0115 µM)
- IC50 ([2]; P388, cell counting after 48 hours exposure, read-out: ID50 (the source's name)): 10 ng/mL (≈ 0.0179 µM)
- MTD [3]: 32.1 mg/kg
- TOXIC DEATHS ([4]; 19 mg/kg i.v. on day 1): 0/10
- T/C % ([4]; 19 mg/kg i.v. on day 1 after tumor inoculum): 167%
- TOXIC DEATHS ([4]; 24.7 mg/kg i.v. on day 1): 0/10
- T/C % ([4]; 24.7 mg/kg i.v. on day 1 after tumor inoculum): 183%
- TOXIC DEATHS ([4]; 32.11 mg/kg i.v. on day 1): 1/10
- T/C % ([4]; 32.11 mg/kg i.v. on day 1 after tumor inoculum): 200%
- potency in vivo compared with DNR ([4]; administered iv): less potent than DNR
- activity in vivo compared with DNR ([4]; iv, at the maxima tolerated dose (32.11 mg/Kg; DNR MxTD=15 mg/Kg)): more active than DNR
